Measurements: US11958812B2, “3, 5-disubstituted pyridine and 3, 5-disubstituted pyridazine derivatives and pharmaceutical use of same” (MITSUBISHI TANABE PHARMA CORPORATION, priority 2018, dated 2024)

Assays:
human recombinant ATX = human recombinant ATX (Homo sapiens, UniProt Q13822); assay: Enzyme inhibition test (choline release from LPC, Amplex UltraRed fluorescence); type: biochemical; settings: 200 μM LPC substrate, 1 hr at room temperature, read-out: Experimental Example 1 human ATX IC50
Description: [Enzyme Inhibition Test Method]
A mixture (10 μL) of substrate and a set of choline quantification reagents (200 μM LPC (1-Oleoyl-sn-glycero-3-phosphocholine Sigma #L1881), 25 μM Amplex UltraRed reagent (Invitrogen), 0.1 U/mL Peroxidase (TOYOBO), 1 U/mL Choline oxidase (TOYOBO)), prepared with assay buffer (50 mM Tris (pH 8.0), 140 mM NaCl, 5 mM KCl, 1 mM CaCl2, 1 mM MgCl2, 0.1% BSA (Albumin from bovine serum, SIGMA), 0.0025% Triton X-100), enzyme (0.4 ng/μL human recombinant ATX) (10 μL), compound-containing solution (100 nL) were dispensed to a 384-well plate, incubated at room temperature for 1 hr and the fluorescence (Ex. 525 nm/Em. 598 nm) was measured. As the standard, choline chloride was used. With a blank free of enzyme was taken as inhibitory rate 100%, and a control free of inhibitor as inhibitory rate 0%, the inhibitory rate was calculated, and IC50 value was calculated from the inhibitory activity percentage at each concentration.

ATX activity in plasma = biological target: T1, ATX activity in plasma (Rattus norvegicus, UniProt Q64610); assay: Measurement of ATX activity in plasma (ex vivo), rat single administration test; design: species or system male Wistar rat
T1 construct: from tissue; host or cells: plasma of male Wistar rats after oral dosing
Description: [Measurement of ATX Activity in Plasma (Ex Vivo)]
A compound administration solution prepared by wet pulverization in a mixer mill (type: MM400) for 10 min and adjusting to a given concentration with 0.5% aqueous carboxymethylcellulose solution was orally administered to male Wistar rat (5-week-old when used) at 5 mL/kg. Blood samples were collected from the cervical vein over time at 8 to 24 hr after administration. The blood was heparin-treated using a micro blood collection tube Capiject (CJ-AL, TERUMO CORPORATION), and the plasma was separated by centrifugation (4° C., 12,000 rpm, for 2 min), and preserved at −80° C. The rats after blood sampling were euthanized by exsanguination from the caudal vena cava under isoflurane inhalation anesthesia. The measurement of ATX activity in plasma was evaluated using the concentration of choline in the plasma, which was liberated from lysophosphatidylcholine (substrate of ATX) by the lysophospholipase D activity of ATX, as an index. An equal amount of 2× assay buffer (200 mM Tris-HCl pH9.0, 10 mM MgCl2, 1 M NaCl, 0.1% Triton X-100) is added to plasma (12 μL) and reacted at 37° C. for 6 hr. The reaction mixture (10 μL) after reaction for 6 hr and 45 μL of reagent R^1 solution (100 mM Tris-HCl pH 8.0, 0.5 mM TOOS, 10 U/mL peroxidase, 0.01% Triton X-100) were added and blended and absorbance at 550-700 nm was measured and used as a prevalue. As the standard, choline chloride was used. 1 mM choline chloride was diluted with 2× assay buffer up to 7 steps in 2-fold serial dilution, R^1 solution was treated similarly and the absorbance was measured. Furthermore, 15 μL of reagent R^2 solution (100 mM Tris-HCl pH 8.0, 1 mM 4-aminoantipyrine, 10 U/mL choline oxidase, 0.01% Triton X-100) was added, and the mixture was reacted at room temperature for 10 min, and absorbance at 550-700 nm was measured. The choline concentration per reaction time was calculated from the difference between the absorbance after R^2 solution addition and prevalue measured before R^2 addition and used as ATX activity value. inhibitory activity (%)=100×{1−[choline concentration (μM) of test substance administration group/choline concentration (μM) of solvent control group]} <calculating formula>

## O=C(O)[C@H]1C[C@@H]1c1cc(-c2cncc(OC[C@H]3CC[C@H](C(F)(F)F)CC3)c2)ccn1 [Example 9-1, (1S,2S)-2-(5-{[trans-4-(trifluoromethyl)cyclohexyl]methoxy}-3,4′-bipyridin-2′-yl)cyclopropanecarboxylic Acid]
Human recombinant ATX
  IC50: 2 nM
ATX activity in plasma
  Experimental Example 2 Rat single administration test (inhibitory activity (%) 8 hr after 1 mg/kg oral administration): 94%

## O=C(O)[C@@H]1C[C@H]1c1cc(-c2cncc(OC[C@H]3CC[C@H](C(F)(F)F)CC3)c2)ccn1 [Example 9-2, (1R,2R)-2-(5-{[trans-4-(trifluoromethyl)cyclohexyl]methoxy}-3,4′-bipyridin-2′-yl)cyclopropanecarboxylic Acid]
Human recombinant ATX
  IC50: 3 nM
ATX activity in plasma
  Experimental Example 2 Rat single administration test (inhibitory activity (%) 8 hr after 1 mg/kg oral administration): 94%

## O=C(O)c1ccc2c(c1)CCN2c1cncc(OC[C@H]2CC[C@H](C(F)(F)F)CC2)c1 [Example 12, 1-(5-{[trans-4-(trifluoromethyl)cyclohexyl]methoxy}pyridin-3-yl)-2,3-dihydro-1H-indole-5-carboxylic Acid]
Human recombinant ATX
  IC50: 1 nM
ATX activity in plasma
  Experimental Example 2 Rat single administration test (inhibitory activity (%) 8 hr after 1 mg/kg oral administration): 76%

## O=C(O)CC[C@H]1CN(c2cncc(OCc3ccc(OC(F)(F)F)cc3)c2)CCO1 [Example 14, 3-[(2S)-4-(5-{[4-(trifluoromethoxy)benzyl]oxy}pyridin-3-yl)morpholin-2-yl]propanoic Acid]
Human recombinant ATX
  IC50: 12 nM
ATX activity in plasma
  Experimental Example 2 Rat single administration test (inhibitory activity (%) 8 hr after 1 mg/kg oral administration): 92%

## O=C(O)CC[C@H]1CN(c2cncc(OCc3ccc(C(F)(F)F)cc3)c2)CCO1 [Example 15, 3-[(2S)-4-(5-{[4-(trifluoromethyl)benzyl]oxy}pyridin-3-yl)morpholin-2-yl]propanoic Acid]
Human recombinant ATX
  IC50: 42 nM
ATX activity in plasma
  Experimental Example 2 Rat single administration test (inhibitory activity (%) 8 hr after 1 mg/kg oral administration): 75%

## O=C(O)CC[C@H]1CN(c2cncc(OC[C@H]3CC[C@H](C(F)(F)F)CC3)c2)CCO1 [Example 16, 3-[(2S)-4-(5-{[trans-4-(trifluoromethyl)cyclohexyl]methoxy}pyridin-3-yl)morpholin-2-yl]propanoic Acid]
Human recombinant ATX
  IC50: 13 nM
ATX activity in plasma
  Experimental Example 2 Rat single administration test (inhibitory activity (%) 8 hr after 1 mg/kg oral administration): 89%

## O=C(O)/C=C/C[C@@H]1COCCN1c1cncc(OCc2ccc(OC(F)(F)F)cc2)c1 [Example 22-1, (2E)-4-[(3R)-4-(5-{[4-(trifluoromethoxy)benzyl]oxy}pyridin-3-yl)morpholin-3-yl]-2-butenoic Acid]
Human recombinant ATX
  IC50: 3 nM
ATX activity in plasma
  Experimental Example 2 Rat single administration test (inhibitory activity (%) 8 hr after 1 mg/kg oral administration): 83%

## O=C(O)CCCC1CCCN1c1cncc(OCc2ccc(OC(F)(F)F)cc2)c1 (stereo not shown) [Example 23, 4-[1-(5-{[4-(trifluoromethoxy)benzyl]oxy}pyridin-3-yl)pyrrolidin-2-yl]butanoic Acid]
Human recombinant ATX
  IC50: 11 nM
ATX activity in plasma
  Experimental Example 2 Rat single administration test (inhibitory activity (%) 8 hr after 1 mg/kg oral administration): 83%

## COc1ccc(-c2cnnc(OCc3ccc(OC(F)(F)F)cc3)c2)nc1[C@H]1C[C@@H]1C(=O)O [Example 25]
Human recombinant ATX
  IC50: 1 nM
ATX activity in plasma
  Experimental Example 2 Rat single administration test (inhibitory activity (%) 8 hr after 1 mg/kg oral administration): 91%

## COc1ccc(-c2cncc(OCc3ccc(OC(F)(F)F)cc3)c2)nc1[C@H]1C[C@@H]1C(=O)O [Example 26]
Human recombinant ATX
  IC50: 5 nM
ATX activity in plasma
  Experimental Example 2 Rat single administration test (inhibitory activity (%) 8 hr after 1 mg/kg oral administration): 82%

## COc1ccc(-c2cncc(OCc3ccc(C(F)(F)F)cc3)c2)nc1[C@H]1C[C@@H]1C(=O)O [Example 29]
Human recombinant ATX
  IC50: 3 nM
ATX activity in plasma
  Experimental Example 2 Rat single administration test (inhibitory activity (%) 8 hr after 1 mg/kg oral administration): 80%

## COc1ccc(-c2cnnc(OCc3ccc(OC(F)(F)F)cc3)c2)cc1C1CC1C(=O)O (stereo not shown) [Example 31]
Human recombinant ATX
  IC50: 4 nM
ATX activity in plasma
  Experimental Example 2 Rat single administration test (inhibitory activity (%) 8 hr after 1 mg/kg oral administration): 90%

## O=C(O)c1ccc2c(c1)CCN2c1cncc(OCC2CCN(CC(F)(F)F)CC2)c1 [Example 39]
Human recombinant ATX
  IC50: 7 nM
ATX activity in plasma
  Experimental Example 2 Rat single administration test (inhibitory activity (%) 8 hr after 1 mg/kg oral administration): 84%

## O=C(O)c1ccc(C2CN(c3cncc(OC[C@H]4CC[C@H](C(F)(F)F)CC4)c3)CCO2)cc1 (stereo partly shown) [Example 45]
Human recombinant ATX
  IC50: 7 nM
ATX activity in plasma
  Experimental Example 2 Rat single administration test (inhibitory activity (%) 8 hr after 1 mg/kg oral administration): 81%
